ChEMBL document CHEMBL2321831, “Design, synthesis, and biological evaluations of novel 7-[7-amino-7-methyl-5-azaspiro[2.4]heptan-5-yl]-8-methoxyquinolines with potent antibacterial activity against respiratory pathogens” (J Med Chem, 2013)
Converted amounts (≈) assume the structure as drawn. The source made the active and inactive calls. The rule behind the calls is not given here.

Experiments:
[1] = Ratio of AUC (0 to 8 hrs) in Crj:CD rat liver to AUC (0 to 8 hrs) in Crj:CD rat serum at 5 mg/kg, po; format: ADME, organism-based; design: dose 5 mg/kg, route oral; settings: read-out: Ratio AUC
Chlamydia pneumoniae [2] = experiment: Antibacterial activity against Chlamydophila pneumoniae CM-1 after 18 hrs by microbroth dilution method; format: functional; settings: CM-1, 18 h
hERG (KCNH2) [3] = molecular target: T1, hERG (KCNH2) (Homo sapiens, UniProt Q12809); experiment: Inhibition of human ERG expressed in CHOK1 cells at 30 uM; format: cell-based; settings: CHO-K1 cells expressing hERG
Streptococcus pyogenes [4] = experiment: Antibacterial activity against Streptococcus pyogenes G-36 after 18 hrs by microbroth dilution method; format: functional; settings: G-36, 18 h
Chlamydia pneumoniae [5] = experiment: Ratio of MIC for levofloxacin to compound MIC for Chlamydophila pneumoniae CM-1; format: functional
[6] = Ratio of AUC (0 to 8 hrs) in Crj:CD rat kidney to AUC (0 to 8 hrs) in Crj:CD rat serum at 5 mg/kg, po; format: ADME, organism-based; design: dose 5 mg/kg, route oral; settings: read-out: Ratio AUC
Streptococcus pneumoniae [7] = experiment: Antibacterial activity against penicillin-susceptible Streptococcus pneumoniae J24 after 18 hrs by microbroth dilution method; format: functional; settings: J24, 18 h
Mus musculus [8] = experiment: Toxicity in SLC:ddY mouse assessed as induction of micronucleus formation at 50 mg/kg, iv after 24 to 48 hrs by fluorescence microscopic analysis; format: organism-based; design: dose 50 mg/kg, route intravenous; settings: in vivo
[9] = AUC (0 to 8 hrs) in Crj:CD rat lung at 5 mg/kg, po; format: ADME, organism-based; design: time < 8 hr, dose 5 mg/kg, route oral
[10] = Cmax in cynomolgus monkey serum at 5 mg/kg, po; format: ADME, organism-based, Macaca fascicularis; design: dose 5 mg/kg, route oral
Moraxella catarrhalis = experiment: Antibacterial activity against Moraxella catarrhalis ATCC 25238 after 18 hrs by microbroth dilution method; format: functional; settings: ATCC 25238, 18 h
[11] = system: Mycoplasmoides pneumoniae; experiment: Ratio of MIC for levofloxacin to compound MIC for Mycoplasma pneumoniae ATCC 29085; format: functional
[12] = system: Staphylococcus epidermidis; experiment: Ratio of MIC for levofloxacin to compound MIC for Staphylococcus epidermidis 56500; format: functional
Mus musculus [13] = experiment: Toxicity in SLC:ddY mouse assessed as induction of micronucleus formation at 100 mg/kg, iv after 24 to 48 hrs by fluorescence microscopic analysis; format: organism-based; design: dose 100 mg/kg, route intravenous; settings: in vivo
Enterococcus faecalis [14] = experiment: Antibacterial activity against Enterococcus faecalis ATCC 19433 after 18 hrs by microbroth dilution method; format: functional; settings: ATCC 19433, 18 h
hERG (KCNH2) [15] = molecular target: T1, hERG (KCNH2); experiment: Inhibition of human ERG expressed in CHOK1 cells at 100 uM; format: cell-based; settings: CHO-K1 cells expressing hERG
Streptococcus pyogenes [16] = experiment: Ratio of MIC for levofloxacin to compound MIC for Streptococcus pyogenes G-36; format: functional
Mus musculus [17] = experiment: Toxicity in SLC:ddY mouse assessed as mortality at 50 mg/kg, iv after 7 days; format: organism-based; design: dose 50 mg/kg, route intravenous; settings: in vivo, 168 h
[18] = AUC (0 to 8 hrs) in Crj:CD rat liver at 5 mg/kg, po; format: ADME, organism-based; design: time < 8 hr, dose 5 mg/kg, route oral
Klebsiella pneumoniae = experiment: Antibacterial activity against Klebsiella pneumoniae TYPE1 after 18 hrs by microbroth dilution method; format: functional; settings: TYPE1, 18 h
Chlamydia pneumoniae [19] = experiment: Ratio of MIC for levofloxacin to compound MIC for Chlamydophila pneumoniae AR39; format: functional
Escherichia coli = experiment: Antibacterial activity against Escherichia coli NIHJ after 18 hrs by microbroth dilution method; format: functional
Enterococcus faecalis [20] = experiment: Ratio of MIC for levofloxacin to compound MIC for Enterococcus faecalis ATCC 19433; format: functional
Streptococcus pneumoniae [21] = experiment: Ratio of MIC for levofloxacin to compound MIC for penicillin-susceptible Streptococcus pneumoniae J24; format: functional
[22] = Bioavailability in cynomolgus monkey at 5 mg/kg, po; format: ADME, organism-based, Macaca fascicularis; settings: in vivo
Streptococcus pneumoniae [23] = experiment: Antibacterial activity against quinolone-resistant Streptococcus pneumoniae infected in sc dosed CBA/JNCrj mouse pneumonia model administered bid measured day after final administration of drug; format: functional, organism-based
[24] = Primary phase half life in cynomolgus monkey serum at 5 mg/kg, iv; format: ADME, organism-based, Macaca fascicularis; design: dose 5 mg/kg, route intravenous; settings: read-out: alphat1/2 (converted)
[25] = system: Staphylococcus epidermidis; experiment: Antibacterial activity against Staphylococcus epidermidis 56500 after 18 hrs by microbroth dilution method; format: functional; settings: Staphylococcus epidermidis, 56500, 18 h
[26] = Cmax in Crj:CD rat serum at 5 mg/kg, po; format: ADME, organism-based; design: dose 5 mg/kg, route oral
[27] = Drug uptake in cynomolgus monkey serum at 5 mg/kg, iv after 5 mins; format: ADME, organism-based, Macaca fascicularis; design: dose 5 mg/kg, route intravenous; settings: read-out: Drug uptake
[28] = system: Mycoplasmoides pneumoniae; experiment: Antibacterial activity against Mycoplasma pneumoniae ATCC 29085 after 18 hrs by microbroth dilution method; format: functional; settings: ATCC 29085, 18 h
[29] = AUC (0 to 8 hrs) in cynomolgus monkey serum at 5 mg/kg, iv; format: ADME, organism-based, Macaca fascicularis, Plasma; design: time < 8 hr, dose 5 mg/kg, route intravenous
Bacillus subtilis [30] = experiment: Antibacterial activity against Bacillus subtilis IID 685 after 18 hrs by microbroth dilution method; format: functional; settings: IID 685, 18 h
Bacillus subtilis [31] = experiment: Ratio of MIC for levofloxacin to compound MIC for Bacillus subtilis IID 685; format: functional
Staphylococcus aureus [32] = experiment: Ratio of MIC for levofloxacin to compound MIC for Staphylococcus aureus FDA 209-P; format: functional
Mus musculus [33] = experiment: Toxicity in SLC:ddY mouse assessed as induction of micronucleus formation at 150 mg/kg, iv after 24 to 48 hrs by fluorescence microscopic analysis; format: organism-based; design: dose 150 mg/kg, route intravenous; settings: in vivo
Staphylococcus aureus [34] = experiment: Antibacterial activity against levofloxacin-resistant and methicillin-resistant Staphylococcus aureus 870307 after 18 hrs by microbroth dilution method; format: functional; settings: Staphylococcus aureus, 870307, 18 h
[35] = system: Mycoplasmoides pneumoniae; experiment: Ratio of MIC for levofloxacin to compound MIC for Mycoplasma pneumoniae 18-1; format: functional
Haemophilus influenzae = experiment: Antibacterial activity against Haemophilus influenzae ATCC 49247 after 18 hrs by microbroth dilution method; format: functional; settings: ATCC 49247, 18 h
[36] = Aqueous solubility of the compound; format: physicochemical
[37] = AUC (0 to 24 hrs) in cynomolgus monkey serum at 5 mg/kg, po; format: ADME, organism-based, Macaca fascicularis, Plasma; design: time < 24 hr, dose 5 mg/kg, route oral
[38] = system: Mycoplasmoides pneumoniae; experiment: Antibacterial activity against Mycoplasma pneumoniae 18-1 after 18 hrs by microbroth dilution method; format: functional; settings: 18-1, 18 h
[39] = Plasma protein binding in human at 5 ug/mL by ultrafiltration method; format: ADME, cell-free; settings: read-out: PPB (converted)
Chlamydia pneumoniae [40] = experiment: Antibacterial activity against Chlamydophila pneumoniae AR39 after 18 hrs by microbroth dilution method; format: functional; settings: AR39, 18 h
[41] = Drug recovery in cynomolgus monkey urine at 5 mg/kg, po after 24 hrs; format: ADME, organism-based, Macaca fascicularis; design: dose 5 mg/kg, route oral; settings: read-out: Drug recovery
[42] = AUC (0 to 8 hrs) in Crj:CD rat serum at 5 mg/kg, po; format: ADME, organism-based; design: time < 8 hr, dose 5 mg/kg, route oral
[43] = Ratio of AUC (0 to 8 hrs) in Crj:CD rat lung to AUC (0 to 8 hrs) in Crj:CD rat serum at 5 mg/kg, po; format: ADME, organism-based; design: dose 5 mg/kg, route oral; settings: read-out: Ratio AUC
[44] = AUC (0 to 8 hrs) in Crj:CD rat kidney at 5 mg/kg, po; format: ADME, organism-based; design: time < 8 hr, dose 5 mg/kg, route oral
Streptococcus pneumoniae [45] = experiment: Antibacterial activity against quinolone, penicillin-resistant Streptococcus pneumoniae 104835 after 18 hrs by microbroth dilution method; format: functional; settings: Streptococcus pneumoniae, 104835, 18 h
[46] = Chloroform-phosphate buffer apparent partition coefficient of the compound, P at pH 7.4
[47] = Drug recovery in cynomolgus monkey urine at 5 mg/kg, iv after 24 hrs; format: ADME, organism-based, Macaca fascicularis; design: dose 5 mg/kg, route intravenous; settings: read-out: Drug recovery
Staphylococcus aureus [48] = experiment: Antibacterial activity against Staphylococcus aureus FDA 209-P after 18 hrs by microbroth dilution method; format: functional
Streptococcus pneumoniae [49] = experiment: Antibacterial activity against levofloxacin-intermediate and levofloxacin-resistant Streptococcus pneumoniae after 18 hrs by microbroth dilution method; format: functional
Pseudomonas aeruginosa = experiment: Antibacterial activity against Pseudomonas aeruginosa PAO1 after 18 hrs by microbroth dilution method; format: functional; settings: PAO1, 18 h
[50] = Half life in cynomolgus monkey serum at 5 mg/kg, po; format: ADME, organism-based, Macaca fascicularis; design: dose 5 mg/kg, route oral
Mus musculus [51] = experiment: Toxicity in SLC:ddY mouse assessed as mortality at 100 mg/kg, iv after 7 days; format: organism-based; design: dose 100 mg/kg, route intravenous; settings: in vivo, 168 h
[52] = Drug recovery in Crj:CD rat urine at 5 mg/kg, po after 24 hrs; format: ADME, organism-based; design: dose 5 mg/kg, route oral; settings: read-out: Drug recovery
Mus musculus [53] = experiment: Toxicity in SLC:ddY mouse assessed as mortality at 150 mg/kg, iv after 7 days; format: organism-based; design: dose 150 mg/kg, route intravenous; settings: in vivo, 168 h
Cytochrome P450 3A4 = Cytochrome P450 3A4 (Homo sapiens, UniProt P08684); experiment: Inhibition of CYP3A4 in human liver microsomes assessed as 1'-hydroxylation of midazolam; format: ADME, Microsome
Streptococcus pneumoniae [54] = experiment: Antibacterial activity against quinolone-sensitive Streptococcus pneumoniae infected in po dosed CBA/JNCrj mouse pneumonia model administered bid measured day after final administration of drug; format: functional, organism-based

T1 sequence (Q12809 whole entry): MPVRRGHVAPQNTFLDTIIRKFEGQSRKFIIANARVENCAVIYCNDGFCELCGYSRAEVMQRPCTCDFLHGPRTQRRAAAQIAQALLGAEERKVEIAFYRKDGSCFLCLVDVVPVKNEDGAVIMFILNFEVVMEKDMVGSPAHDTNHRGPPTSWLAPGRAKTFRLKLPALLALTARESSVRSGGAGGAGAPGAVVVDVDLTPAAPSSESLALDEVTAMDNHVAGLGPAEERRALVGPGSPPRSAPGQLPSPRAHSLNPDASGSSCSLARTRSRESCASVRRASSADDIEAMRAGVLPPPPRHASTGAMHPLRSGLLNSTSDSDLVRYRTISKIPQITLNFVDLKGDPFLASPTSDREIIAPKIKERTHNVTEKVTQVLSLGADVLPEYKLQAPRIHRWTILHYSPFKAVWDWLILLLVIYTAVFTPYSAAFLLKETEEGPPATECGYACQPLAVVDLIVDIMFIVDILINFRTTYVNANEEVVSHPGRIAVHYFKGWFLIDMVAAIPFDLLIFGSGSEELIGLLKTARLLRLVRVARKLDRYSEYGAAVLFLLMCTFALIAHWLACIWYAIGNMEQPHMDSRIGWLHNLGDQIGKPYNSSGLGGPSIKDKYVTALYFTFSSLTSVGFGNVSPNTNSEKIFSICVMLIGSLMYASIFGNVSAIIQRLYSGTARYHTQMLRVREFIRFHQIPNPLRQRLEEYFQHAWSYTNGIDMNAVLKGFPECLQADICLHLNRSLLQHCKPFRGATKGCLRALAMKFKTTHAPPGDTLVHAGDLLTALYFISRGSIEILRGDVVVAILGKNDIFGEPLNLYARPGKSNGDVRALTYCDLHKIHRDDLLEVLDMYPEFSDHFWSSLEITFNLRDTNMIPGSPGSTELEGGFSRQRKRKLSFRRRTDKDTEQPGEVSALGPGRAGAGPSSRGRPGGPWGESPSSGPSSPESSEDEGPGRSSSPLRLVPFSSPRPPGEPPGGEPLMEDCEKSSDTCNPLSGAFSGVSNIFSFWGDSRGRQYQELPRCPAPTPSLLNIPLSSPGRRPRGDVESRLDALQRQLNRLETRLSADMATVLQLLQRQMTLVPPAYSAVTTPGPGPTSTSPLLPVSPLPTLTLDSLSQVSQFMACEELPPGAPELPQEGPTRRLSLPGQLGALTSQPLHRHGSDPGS
Sequence of Cytochrome P450 3A4 (P08684 whole entry): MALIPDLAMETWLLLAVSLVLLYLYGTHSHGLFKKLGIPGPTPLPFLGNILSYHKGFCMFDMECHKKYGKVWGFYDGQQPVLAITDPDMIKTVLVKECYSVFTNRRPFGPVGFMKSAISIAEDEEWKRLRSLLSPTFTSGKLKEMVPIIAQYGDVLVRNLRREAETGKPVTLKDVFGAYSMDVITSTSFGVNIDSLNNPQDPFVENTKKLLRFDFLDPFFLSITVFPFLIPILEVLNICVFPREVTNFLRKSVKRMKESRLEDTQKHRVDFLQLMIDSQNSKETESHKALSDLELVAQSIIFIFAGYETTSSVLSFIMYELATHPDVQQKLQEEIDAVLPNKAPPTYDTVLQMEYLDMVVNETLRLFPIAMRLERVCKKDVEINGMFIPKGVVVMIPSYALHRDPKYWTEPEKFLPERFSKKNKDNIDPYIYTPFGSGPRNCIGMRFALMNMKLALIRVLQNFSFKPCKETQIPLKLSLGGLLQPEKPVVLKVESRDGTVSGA

Q: Which results are given for `COc1c(N2CC3(CC3)[C@](C)(N)C2)c(F)cc2c(=O)c(C(=O)O)cn([C@@H]3C[C@@H]3F)c12`?
A: Kp [1]: 10.4; MIC (Chlamydia pneumoniae [2]): 0.063 µg/mL (≈ 0.15 µM); inhibition at 30 µM (hERG (KCNH2) [3]): 1.9%; MIC (Streptococcus pyogenes [4]): 0.2 µg/mL (≈ 0.477 µM); Ratio (Chlamydia pneumoniae [5]): 4; Kp [6]: 9; MIC (Streptococcus pneumoniae [7]): 0.05 µg/mL (≈ 0.119 µM); Activity (Mus musculus [8]): Non-toxic; AUC(0-t) at 8 h [9]: 13700 ng·h/mL; Cmax [10]: 2200 ng/mL; MIC (Moraxella catarrhalis): 0.05 µg/mL (≈ 0.119 µM); Ratio [11]: 4; Ratio [12]: >4; Activity (Mus musculus [13]): Non-toxic; MIC (Enterococcus faecalis [14]): 0.2 µg/mL (≈ 0.477 µM); inhibition at 100 µM (hERG (KCNH2) [15]): 2.7%; Ratio (Streptococcus pyogenes [16]): >4; Activity (Mus musculus [17]): Non-toxic; AUC(0-t) at 8 h [18]: 32100 ng·h/mL; MIC (Klebsiella pneumoniae): 0.05 µg/mL (≈ 0.119 µM); Ratio (Chlamydia pneumoniae [19]): 4; MIC (Escherichia coli): 0.012 µg/mL (≈ 0.0286 µM); Ratio (Enterococcus faecalis [20]): >4; Ratio (Streptococcus pneumoniae [21]): >4; bioavailability [22]: 71%; Activity (Streptococcus pneumoniae [23]): Active; half-life [24]: 4.8 h; MIC [25]: 0.1 µg/mL (≈ 0.238 µM); Cmax [26]: 1220 ng/mL; concentration at 5 min [27]: 3660 ng/mL; MIC [28]: 0.12 µg/mL (≈ 0.286 µM); AUC(0-t) at 8 h [29]: 23800 ng·h/mL; MIC (Bacillus subtilis [30]): 0.1 µg/mL (≈ 0.238 µM); Ratio (Bacillus subtilis [31]): >4; Ratio (Staphylococcus aureus [32]): >4; Activity (Mus musculus [33]): Non-toxic; MIC (Staphylococcus aureus [34]): 0.39 µg/mL (≈ 0.93 µM); Ratio [35]: 4; MIC (Haemophilus influenzae): 0.012 µg/mL (≈ 0.0286 µM); solubility [36]: 620 µg/mL (≈ 1480 µM); AUC(0-t) at 24 h [37]: 16900 ng·h/mL; MIC [38]: 0.12 µg/mL (≈ 0.286 µM); fraction unbound at 5 ug/mL [39]: 0.653; MIC (Chlamydia pneumoniae [40]): 0.125 µg/mL (≈ 0.298 µM); dose excreted at 24 h [41]: 61.3%; AUC(0-t) at 8 h [42]: 3080 ng·h/mL; Kp [43]: 4.4; AUC(0-t) at 8 h [44]: 27800 ng·h/mL; MIC (Streptococcus pneumoniae [45]): 0.39 µg/mL (≈ 0.93 µM); P [46]: 19.2; dose excreted at 24 h [47]: 69.8%; MIC (Staphylococcus aureus [48]): 0.025 µg/mL (≈ 0.0596 µM); MIC50 (Streptococcus pneumoniae [49]): 1 µg/mL (≈ 2.38 µM); MIC80 (Streptococcus pneumoniae [49]): 1 µg/mL (≈ 2.38 µM); MIC90 (Streptococcus pneumoniae [49]): 1 µg/mL (≈ 2.38 µM); MIC (Pseudomonas aeruginosa): 0.78 µg/mL (≈ 1.86 µM); half-life [50]: 4.8 h; Activity (Mus musculus [51]): Non-toxic; dose excreted at 24 h [52]: 32%; Activity (Mus musculus [53]): Non-toxic; inhibition (INH) (Cytochrome P450 3A4): Not Active; Activity (Streptococcus pneumoniae [54]): Active
